# Assay results published in patent US20120255051A1, “HERBICIDE TOLERANT PLANTS” (priority 2009, published 2012).
# Values joined by “and” are separate entries in the source; they are usually repeats but may differ in a detail not shown here. Equal entries are not always repeated.
# System: Brassica plants comprising mutant AHAS alleles
# Assay: Field trial, pre-planting treatment (0, 10, 20, 30 g a.i./ha), two locations in Canada: ERG, EST1, EST2, PPTOX, VIG1, VIG2, VIG3 scores
# Type: in vivo, Brassica napus
# From the text: Tests were set up and conducted to asses the growth and performance of plants comprising AHAS full knock-out alleles, and to further analyze the correlation between the presence of full knockout and missense AHAS genes in Brassica plants and plant growth and herbicide tolerance of the Brassica plants in the field. To this end, the Brassica plants identified in Example 1 and 2 were backcrossed two times with an elite parent line, and subsequently selfed twice to obtain homozygous plants (BC2S2). Plants were grown as row plots in a split plot design with three replicates (main plots=herbicide treatments, subplots=genotypes) at two locations in Canada. Treatment pre-planting was carried out on the soil about two days before sowing with a dose of 0 (treatment A), 10 (treatment B), 20 (treatment C) or 30 (treatment D) g a.i./ha of thiencarbazone methyl. Herbicide tolerance was measured by scoring for different parameters. The parameter emergence (ERG) was scored at the cotyledon stage on a scale 1-9, where 1 means late emergence and 9 means early emergence. Establishment was scored 14 days after sowing (EST1) and 21 days after sowing (EST2). Scores were from 1 to 9, where 1 is the worst establishment (least plants that emerged), and 9 is the best establishment (most plants emerged). Phytotoxicity (PPTOX) was determined after establishment. Plants were evaluated on a scale of 1 to 9, where 1=completely yellowing, 5=50% of plant is yellow and 9=no yellowing. The vigor scores (see above) were determined at 1-2 leaf stage (VIG1), 7 days after VIG1 (VIG2) and 14 days after VIG1 (VIG3). The average values (Av) and standard deviations (SD) of the scores for the different parameters are represented in Table 7a-g.
# Further, the contribution of the knock-out allele to herbicide tolerance conferred by the missense allele was calculated. First, the scores were corrected for a possible effect of the growth per se, independent of herbicide treatment. To this end, the scores for treatments B, C and D were divided by the scores for treatment A for the same genotype and for the same parameter (corrected herbicide tolerance scores). Next, the effect of the knock-out allele to these corrected herbicide tolerance scores obtained by the missense allele was calculated. Therefore, the corrected herbicide tolerance scores for the missense—knock-out allele combination was divided by the corrected herbicide tolerance scores for the missense allele—wild-type combination. In case the knock-out allele has no effect on herbicide tolerance conferred by the missense allele, this ratio should be 1. In case the knock-out allele positively contributes to the herbicide tolerance conferred by the missense allele, this ratio should be higher than 1. The results for the contribution of the knock-out allele to herbicide tolerance conferred by the missense allele as calculated above are shown in table 8.
# [1] = AHAS1 HETO108/AHAS3 HETO104, 30 g a.i./ha pre-planting (D), Location A
# [2] = AHAS1 HETO108/AHAS3 HETO104, 30 g a.i./ha pre-planting (D), Location B
# [3] = AHAS1 HETO108/AHAS3 HETO111, 10 g a.i./ha pre-planting (B), Location A
# [4] = AHAS1 HETO108/AHAS3 HETO111, 10 g a.i./ha pre-planting (B), Location B
# [5] = AHAS1 HETO108/AHAS3 HETO111, 20 g a.i./ha pre-planting (C), Location A
# [6] = AHAS1 HETO108/AHAS3 HETO111, 20 g a.i./ha pre-planting (C), Location B
# [7] = AHAS1 HETO108/AHAS3 HETO111, 30 g a.i./ha pre-planting (D), Location A
# [8] = AHAS1 HETO108/AHAS3 HETO111, 30 g a.i./ha pre-planting (D), Location B
# [9] = AHAS1 HETO108/AHAS3 WT, 10 g a.i./ha pre-planting (B), Location A
# [10] = AHAS1 HETO108/AHAS3 WT, 10 g a.i./ha pre-planting (B), Location B
# [11] = AHAS1 HETO108/AHAS3 WT, 20 g a.i./ha pre-planting (C), Location A
# [12] = AHAS1 HETO108/AHAS3 WT, 20 g a.i./ha pre-planting (C), Location B
# [13] = AHAS1 HETO108/AHAS3 WT, 30 g a.i./ha pre-planting (D), Location A
# [14] = AHAS1 HETO108/AHAS3 WT, 30 g a.i./ha pre-planting (D), Location B
# [15] = AHAS1 HETO112, AHAS3 HETO111, treatment B 10 g a.i./ha pre-planting, Location A
# [16] = AHAS1 HETO112, AHAS3 HETO111, treatment B 10 g a.i./ha pre-planting, Location B
# [17] = AHAS1 HETO112, AHAS3 HETO111, treatment C 20 g a.i./ha pre-planting, Location A
# [18] = AHAS1 HETO112, AHAS3 HETO111, treatment C 20 g a.i./ha pre-planting, Location B
# [19] = AHAS1 HETO112, AHAS3 HETO111, treatment D 30 g a.i./ha pre-planting, Location A
# [20] = AHAS1 HETO112, AHAS3 HETO111, treatment D 30 g a.i./ha pre-planting, Location B
# [21] = AHAS1 HETO112, AHAS3 WT, treatment B 10 g a.i./ha pre-planting, Location A
compound,measurement,setting,value
"COC(=O)c1csc(C)c1S(=O)(=O)NC(=O)n1nc(OC)n(C)c1=O [thiencarbazone-methyl, methyl 4-[(4,5-dihydro-3-methoxy-4-methyl-5-oxo-1H-1,2,4-triazol-1-yl)carbonylsulfamoyl]-5-methylthiophene-3-carboxylate]","vigor2 (VIG2) score, Av","AHAS1 HETO108/AHAS3 HETO104, 20 g a.i./ha pre-planting (C), Location B",6.33
same,"establishment (EST2) score, Av",[1],5.33
same,"phytotoxicity (PPTOX) score, Av",[1],5.00
same,"vigor2 (VIG2) score, Av",[1],5.67
same,"establishment (EST2) score, Av",[2],5.33
same,"phytotoxicity (PPTOX) score, Av",[2],6.33
same,"vigor2 (VIG2) score, Av",[2],6.00
same,"establishment (EST2) score, Av",[3],6.33
same,"vigor1 (VIG1) score, Av",[3],6.33
same,"vigor2 (VIG2) score, Av",[3],7.33
same,"establishment (EST2) score, Av",[4],6.00
same,"vigor2 (VIG2) score, Av",[4],7.00
same,"establishment (EST2) score, Av",[5],5.67
same,"phytotoxicity (PPTOX) score, Av",[5],5.00
same,"vigor2 (VIG2) score, Av",[5],6.33
same,"establishment (EST2) score, Av",[6],5.33
same,"vigor1 (VIG1) score, Av",[6],5.00
same,"vigor2 (VIG2) score, Av",[6],6.33
same,"establishment (EST2) score, Av",[7],6.00
same,"phytotoxicity (PPTOX) score, Av",[7],6.00
same,"vigor1 (VIG1) score, Av",[7],6.00
same,"vigor2 (VIG2) score, Av",[7],7.00
same,"establishment (EST2) score, Av",[8],4.00
same,"vigor2 (VIG2) score, Av",[8],4.33
same,"establishment (EST2) score, Av",[9],6.67 and 6.33
same,"phytotoxicity (PPTOX) score, Av",[9],7.00
same,"vigor1 (VIG1) score, Av",[9],7.00 and 6.00
same,"vigor2 (VIG2) score, Av",[9],8.33 and 7.67
same,"establishment (EST2) score, Av",[10],5.00 and 5.33
same,"phytotoxicity (PPTOX) score, Av",[10],6.33 and 5.00
same,"vigor1 (VIG1) score, Av",[10],6.00
same,"vigor2 (VIG2) score, Av",[10],5.33 and 5.67
same,"establishment (EST2) score, Av",[11],5.00 and 5.67
same,"phytotoxicity (PPTOX) score, Av",[11],5.00
same,"vigor1 (VIG1) score, Av",[11],6.00
same,"vigor2 (VIG2) score, Av",[11],6.67
same,"phytotoxicity (PPTOX) score, Av",[12],7.00
same,"vigor1 (VIG1) score, Av",[12],5.00
same,"vigor2 (VIG2) score, Av",[12],6.33 and 7.67
same,"establishment (EST2) score, Av",[13],5.67 and 5.33
same,"phytotoxicity (PPTOX) score, Av",[13],5.00
same,"vigor2 (VIG2) score, Av",[13],6.33
same,"phytotoxicity (PPTOX) score, Av",[14],5.00
same,"vigor1 (VIG1) score, Av",[14],5.00
same,"vigor2 (VIG2) score, Av",[14],5.00 and 5.33
same,emergence (ERG) score Av,[15],4.33
same,"establishment (EST1) score Av, 14 days after sowing",[15],5.00
same,emergence (ERG) score Av,[16],4.33
same,"establishment (EST1) score Av, 14 days after sowing",[16],5.67
same,emergence (ERG) score Av,[17],5.00
same,"establishment (EST1) score Av, 14 days after sowing",[17],5.33
same,emergence (ERG) score Av,[18],4.00
same,"establishment (EST1) score Av, 14 days after sowing",[18],5.00
same,emergence (ERG) score Av,[19],5.33
same,"establishment (EST1) score Av, 14 days after sowing",[19],5.67
same,emergence (ERG) score Av,[20],3.00
same,"establishment (EST1) score Av, 14 days after sowing",[20],3.67
same,emergence (ERG) score Av,[21],1.67
same,"establishment (EST1) score Av, 14 days after sowing",[21],1.67
same,emergence (ERG) score Av,"AHAS1 HETO112, AHAS3 WT, treatment B 10 g a.i./ha pre-planting, Location B",1.67
